From patent US7732609B2, “5-(arylsulfonyl)-pyrazolopiperidines” (Elan Pharmaceuticals, Inc., priority 2005, dated 2010) come the findings set out here.

The structures appear in SMILES notation.

The target of the assay is T1, gamma-secretase (Homo sapiens, UniProt P49768).
T1 construct: The assay used a partially purified extract of IMR-32 cell membranes as the gamma-secretase enzyme preparation; endogenous in cells; host or cells: IMR-32 cell membranes (partially purified extract)
Kind of assay: Gamma-secretase APP enzyme assay (MBP-C125 Swe cleavage at Aβ40 site, sandwich ELISA). The class given is biochemical. The note with it: IMR-32 cell membrane extract as enzyme; MBP-C125swe substrate; 2 h at 37° C; read-out: γAPP. The source says:
The gamma-secretase APP enzyme assay was designed to measure the specific proteolytic cleavage of an APP substrate (MBP-C125 Swe fusion protein) at the Aβ40 site. The assay used a partially purified extract of IMR-32 cell membranes as the gamma-secretase enzyme preparation and a recombinant fusion protein containing the C-terminal 125 amino acids of the Swedish variant of the APP (MBP-C125swe) as the substrate. This assay involved two steps beginning with the enzymatic reaction generating a cleavage product that was captured with an immobilized antibody specific for the neo-epitope Aβ40 site. The captured cleavage product was then detected in a sandwich ELISA assay with a biotinylated reporter antibody that is specific to Aβ (17-28). Streptavidin-linked alkaline phosphatase was then added that would generate a fluorescent signal proportional to the amount of cleavage product. This assay was used to discover small molecule inhibitors of gamma-secretase.
Briefly, a 149 mg/ml solution of BIGCHAP detergent was made with water at 42° C. and then rotated for 30 minutes at the same temperature. This warmed solution of BigCHAPS(N,N-Bis(3-D-gluconamidopropyl)cholamide) detergent was used to dissolve Brain Extract Type-V (lipid containing a minimum of 40% phosphatidylethanolamine) from Sigma (St. Louis, Mo.) to a concentration of 8 mg/ml. This solution containing BigCHAPS and lipid at 8 mg/ml is then diluted to 0.53 mg/ml lipid with a pre-warmed solution of Hepes and sodium chloride. This final solution containing Hepes buffer, sodium chloride, BigCHAPS detergent and lipid is used to create working solutions of both gamma-secretase (25 Units) and the MBP-C125 substrate (0.05 mg/ml).
Gamma-secretase was then added to a 96-well micro-titre plate and then incubated with various concentrations of inhibitor for 30 minutes at 37° C. MBPC125 substrate was then added to initiate the reaction that would run for two hours at 37° C. The reaction was quenched with the addition of SDS to a final concentration of 0.1% and then 100 μl of the reaction mixture was transferred to a capture ELISA plate and incubated overnight at 4° C. Detection of the cleavage product was performed using a standard sandwich ELISA assay and quantified using a six point standard curve.
(ELISA stands for enzyme-linked immunosorbent assay.)

For the compound `O=S(=O)(c1ccc(Cl)cc1)N1Cc2c[nH]nc2CC1c1cncnc1` (single isomer, unassigned) [5-(4-chlorophenylsulfonyl)-6-(pyrimidin-5-yl)-4,5,6,7-tetrahydro-1H-pyrazolo[4,3-c]pyridine], the IC50 is < 50 nM. Consider `O=S(=O)(c1ccc(Cl)cc1)N1CCc2n[nH]cc2C1c1nccs1` (stereo not shown) [2-(5-(4-chlorophenylsulfonyl)-4,5,6,7-tetrahydro-2H-pyrazolo[4,3-c]pyridin-4-yl)thiazole], for which the IC50 was < 50 nM. The result for `O=S(=O)(c1ccc(Cl)cc1)N1Cc2c[nH]nc2CC1c1nccs1` (stereo not shown) [2-(5-(4-chlorophenylsulfonyl)-4,5,6,7-tetrahydro-2H-pyrazolo[4,3-c]pyridin-6-yl)thiazole] reads 150 to 300 nM; that for `O=S(=O)(c1ccc(Cl)cc1)N1CCc2[nH]ncc2C1c1nc2ccccc2[nH]1` (stereo not shown) [4-(1H-Benzoimidazol-2-yl)-5-(4-chloro-benzenesulfonyl)-4,5,6,7-tetrahydro-1H-pyrazolo[4,3-c]pyridine], 150 to 300 nM; that for `O=S(=O)(c1ccc(Cl)cc1)N1CCc2ncccc2C1c1ccc(Cl)cc1` (stereo not shown) [5-(4-chlorophenyl)-6-(4-chlorophenylsulfonyl)-5,6,7,8-tetrahydro-1,6-naphthyridine], < 50 nM.

Turning to `CCC1c2cn[nH]c2CC(CO)N1S(=O)(=O)c1ccc(Cl)cc1` (stereo not shown) [5-(4-chlorophenylsulfonyl)-4-ethyl-4,5,6,7-tetrahydro-1H-pyrazolo[4,3-c]pyridin-6-yl)methanol], the IC50 was < 50 nM.

On to `O=S(=O)(c1ccc(Cl)cc1)N1Cc2c[nH]nc2CC1c1cc(F)cc(F)c1` (stereo not shown) [5-(4-chlorophenylsulfonyl)-6-(3,5-difluorophenyl)-4,5,6,7-tetrahydro-1H-pyrazolo[4,3-c]pyridine], for which the IC50 was < 50 nM.

As for `O=S(=O)(c1ccc(Cl)cc1)N1Cc2cn[nH]c2CC1c1cccc(F)c1` (stereo not shown) [5-(4-chlorophenylsulfonyl)-6-(3-fluorophenyl)-4,5,6,7-tetrahydro-1H-pyrazolo[4,3-c]pyridine], the IC50 is < 50 nM. Regarding `O=S(=O)(c1ccc(Cl)cc1)N1Cc2cn[nH]c2CC1c1ccc(F)cc1` (stereo not shown) [5-(4-chlorophenylsulfonyl)-6-(4-fluorophenyl)-4,5,6,7-tetrahydro-1H-pyrazolo[4,3-c]pyridine], the IC50 was < 50 nM. For `O=S(=O)(c1ccc(Cl)cc1)N1Cc2cn[nH]c2CC1c1cccnc1` (stereo not shown) [5-(4-chlorophenylsulfonyl)-6-(pyridin-3-yl)-4,5,6,7-tetrahydro-1H-pyrazolo[4,3-c]pyridine], the IC50 fell in the range of 50 to 150 nM. For `O=S(=O)(c1ccc(Cl)cc1)N1Cc2cn[nH]c2CC1c1ccncc1` (stereo not shown) [5-(4-chlorophenylsulfonyl)-6-(pyridin-4-yl)-4,5,6,7-tetrahydro-1H-pyrazolo[4,3-c]pyridine], the IC50 lay in the range of 150 to 300 nM. As for `CC(C)C1Cc2n[nH]cc2CN1S(=O)(=O)c1ccc(Cl)cc1` (stereo not shown) [5-(4-chlorophenylsulfonyl)-6-isopropyl-4,5,6,7-tetrahydro-1H-pyrazolo[4,3-c]pyridine], the IC50 was < 50 nM. Regarding `O=S(=O)(c1ccc(Cl)cc1)N1Cc2c[nH]nc2CC1c1ccccc1` (stereo not shown) [5-(4-chlorophenylsulfonyl)-6-phenyl-4,5,6,7-tetrahydro-1H-pyrazolo[4,3-c]pyridine], the IC50 was < 50 nM. Take `O=S(=O)(c1ccc(Cl)s1)N1Cc2cn[nH]c2CC1c1ccccc1` (stereo not shown) [5-(5-chlorothiophen-2-ylsulfonyl)-6-phenyl-4,5,6,7-tetrahydro-1H-pyrazolo[4,3-c]pyridine]: the IC50 was < 50 nM. Regarding `O=S(=O)(c1ccc(Cl)cc1)N1Cc2c(C(F)(F)F)n[nH]c2CC1c1ccc(Cl)cc1` (stereo not shown) [6-(4-chlorophenyl)-5-(4-chlorophenylsulfonyl)-3-(trifluoromethyl)-4,5,6,7-tetrahydro-1H-pyrazolo[4,3-c]pyridine], the IC50 lay within 150 to 300 nM.

In the case of `O=S(=O)(c1ccc(Cl)cc1)N1Cc2c[nH]nc2CC1Cc1ccccc1` (stereo not shown) [6-benzyl-5-(4-chlorophenylsulfonyl)-4,5,6,7-tetrahydro-1H-pyrazolo[4,3-c]pyridine], the IC50 fell in the range of 50 to 150 nM.
